Reference: the supplement of paper PMC10307832

Key:
Test in all cases: relative viability (nuclei count vs DMSO), 5 days (fraction); higher = more cells survive
[1] = compound: CS(=O)(=O)c1ccc(C(=O)Nc2ccc(Cl)c(-c3ccccn3)c2)c(Cl)c1 [Vismodegib] + N=C(N)NC(=N)NCCc1ccccc1 [Phenformin] (partner 250 µM)
Method in brief: (§1)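 The day after seeding in 1536-well plates, lung cancer cell lines were treated by pin tool with a single drug, or with a fixed anchor-drug dose together with five library-drug doses (not always all listed) in √10 steps. After 5 days, a combined fix-and-stain solution (final 0.05% Triton X-100, 1% formaldehyde, 1 ug/ml Hoechst) was added. Nuclei counted on 4× images gave relative viability as treated counts over vehicle counts, reported as the median of duplicate plates.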

[2] = compound: CS(=O)(=O)c1ccc(C(=O)Nc2ccc(Cl)c(-c3ccccn3)c2)c(Cl)c1 [Vismodegib] + Cc1cc(Nc2cc(N3CCN(C)CC3)nc(Sc3ccc(NC(=O)C4CC4)cc3)n2)n[nH]1 [Tozasertib] (partner 0.1 µM)
Method in brief: as §1

[3] = compound: CS(=O)(=O)c1ccc(-c2cnc(N)c(C(=O)Nc3ccccc3)n2)cc1 [VE-821] + CCNC(=O)c1noc(-c2cc(C(C)C)c(O)cc2O)c1-c1ccc(CN2CCOCC2)cc1 [Luminespib] (partner 0.01 µM)
Method in brief: as §1

[4] = compound: CS(=O)(=O)c1ccc(C(=O)Nc2ccc(Cl)c(-c3ccccn3)c2)c(Cl)c1 [Vismodegib] + NC(=O)Nc1cc(-c2cccc(F)c2)sc1C(=O)N[C@H]1CCCNC1 [AZD7762] (partner 0.2 µM)
Method in brief: as §1

| Cell Line | relative viability ([1]; first compound 0.08 µM) | relative viability ([1]; first compound 0.253 µM) | relative viability ([1]; first compound 0.8 µM) | relative viability ([1]; first compound 2.53 µM) | relative viability ([1]; first compound 8 µM) | relative viability ([2]; first compound 0.08 µM) | relative viability ([2]; first compound 0.253 µM) | relative viability ([2]; first compound 0.8 µM) | relative viability ([2]; first compound 2.53 µM) | relative viability ([2]; first compound 8 µM) | relative viability ([3]; first compound 0.08 µM) | relative viability ([3]; first compound 0.253 µM) | relative viability ([3]; first compound 0.8 µM) | relative viability ([3]; first compound 2.53 µM) | relative viability ([3]; first compound 8 µM) | relative viability ([4]; first compound 0.08 µM) | relative viability ([4]; first compound 0.253 µM) | relative viability ([4]; first compound 0.8 µM) | relative viability ([4]; first compound 2.53 µM) | relative viability ([4]; first compound 8 µM) |
| --- | --- | --- | --- | --- | --- | --- | --- | --- | --- | --- | --- | --- | --- | --- | --- | --- | --- | --- | --- | --- |
| LU99A | 0.901 | 0.807 | 0.813 | 0.802 | 0.772 | 0.301 | 0.248 | 0.239 | 0.268 | 0.269 | 0.274 | 0.261 | 0.241 | 0.199 | 0.194 | 0.333 | 0.324 | 0.537 | 0.353 | 0.325 |
| LXF-289 | 0.524 | 0.495 | 0.508 | 0.517 | 0.467 | 0.22 | 0.185 | 0.2 | 0.224 | 0.213 | 0.766 | 0.671 | 0.52 | 0.82 | 0.616 | 1.02 | 1.1 | 1.1 | 1.09 | 1.08 |
| NCI-H23 | 0.765 | 0.728 | 0.806 | 0.742 | 0.731 | 0.362 | 0.425 | 0.386 | 0.297 | 0.301 | 0.202 | 0.223 | 0.214 | 0.236 | 0.213 | 0.264 | 0.34 | 0.276 | 0.23 | 0.232 |
| NCI-H322M | 0.798 | 0.771 | 0.783 | 0.729 | 0.756 | 0.483 | 0.485 | 0.503 | 0.473 | 0.443 | 0.958 | 0.87 | 0.632 | 0.4 | 0.266 | 0.598 | 0.503 | 0.603 | 0.507 | 0.548 |
| NCI-H358 | 0.345 | 0.418 | 0.359 | 0.329 | 0.292 | 0.0964 | 0.104 | 0.104 | 0.103 | 0.0976 | 0.62 | 0.307 | 0.334 | 0.537 | 1.49 | 0.529 | 0.57 | 0.664 | 0.477 | 0.611 |
| NCI-H441 | 0.838 | 0.648 | 0.831 | 0.835 | 0.907 | 0.576 | 0.63 | 0.567 | 0.524 | 0.584 | 0.289 | 0.386 | 0.602 | 0.307 | 0.363 | 1.1 | – | 1.05 | 1.01 | 1.03 |
| NCI-H460 | 0.516 | 0.512 | 0.561 | 0.508 | 0.595 | 0.55 | 0.447 | 0.377 | 0.367 | 0.298 | 0.0302 | 0.0482 | 0.0362 | 0.0342 | 0.0308 | 0.583 | 0.56 | 0.576 | 0.535 | 0.724 |
| NCI-H522 | 0.643 | 0.618 | 0.673 | 0.657 | 0.632 | 0.534 | 0.508 | 0.529 | 0.548 | 0.577 | 1.11 | 1.21 | 0.958 | 0.997 | 0.897 | 1.06 | 0.875 | 0.849 | 0.81 | 0.857 |
